In US9006250B2, “4-amino-6-(heterocyclic)picolinates and 6-amino-2-(heterocyclic)pyrimidine-4-carboxylates and their use as herbicides” (Dow AgroSciences, LLC, priority 2013, dated 2015):

Experiments:
[1] = system: ORYSA: rice (Oryza sativa); assay: Post-Emergent Test II herbicidal activity; type: in vivo; conditions: post-emergence, 336 h, 14 days, read-out: Visual Growth Reduction (%) 14 Days After Application ORYSA; for pest or weed control at 35 g/ha: 35 g ai/ha; for pest or weed control at 70 g/ha: 70 g ai/ha; for pest or weed control at 140 g/ha: 140 g ai/ha
Summary of the method: (§1)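 Visual injury rating (0 = no injury, 100 = complete kill) taken 14 d after post-emergent foliar spray, relative to untreated plants. Seedlings at first/second true leaf stage; spray volume 187 L/ha; rates from highest down to 1/16× by serial dilution; subirrigation after treatment.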

[2] = system: BRSNN: oilseed rape, canola (Brassica napus); assay: Post-Emergent Test II herbicidal activity; type: in vivo; conditions: post-emergence, 336 h, 14 days, read-out: Visual Growth Reduction (%) 14 Days After Application BRSNN; for pest or weed control at 35 g/ha: 35 g ai/ha; for pest or weed control at 70 g/ha: 70 g ai/ha; for pest or weed control at 140 g/ha: 140 g ai/ha
Summary of the method: as §1

[3] = system: AMARE: redroot pigweed (Amaranthus retroflexus); assay: Post-Emergent Test II herbicidal activity; type: in vivo; conditions: post-emergence, 336 h, 14 days, read-out: Visual Growth Reduction (%) 14 Days After Application AMARE; for pest or weed control at 35 g/ha: 35 g ai/ha; for pest or weed control at 70 g/ha: 70 g ai/ha; for pest or weed control at 140 g/ha: 140 g ai/ha
Summary of the method: as §1

[4] = system: CHEAL: lambsquarters (Chenopodium album); assay: Post-Emergent Test II herbicidal activity; type: in vivo; conditions: post-emergence, 336 h, 14 days, read-out: Visual Growth Reduction (%) 14 Days After Application CHEAL; for pest or weed control at 35 g/ha: 35 g ai/ha; for pest or weed control at 70 g/ha: 70 g ai/ha; for pest or weed control at 140 g/ha: 140 g ai/ha
Summary of the method: as §1

[5] = system: HELAN: sunflower (Helianthus annuus); assay: Post-Emergent Test II herbicidal activity; type: in vivo; conditions: post-emergence, 336 h, 14 days, read-out: Visual Growth Reduction (%) 14 Days After Application HELAN; for pest or weed control at 35 g/ha: 35 g ai/ha; for pest or weed control at 70 g/ha: 70 g ai/ha; for pest or weed control at 140 g/ha: 140 g ai/ha
Summary of the method: as §1

[6] = system: EPHHL: wild poinsettia (Euphorbia heterophylla); assay: Post-Emergent Test II herbicidal activity; type: in vivo; conditions: post-emergence, 336 h, 14 days, read-out: Visual Growth Reduction (%) 14 Days After Application EPHHL; for pest or weed control at 35 g/ha: 35 g ai/ha; for pest or weed control at 70 g/ha: 70 g ai/ha; for pest or weed control at 140 g/ha: 140 g ai/ha
Summary of the method: as §1

[7] = system: ABUTH: velvetleaf (Abutilon theophrasti); assay: Post-Emergent Test II herbicidal activity; type: in vivo; conditions: post-emergence, 336 h, 14 days, read-out: Visual Growth Reduction (%) 14 Days After Application ABUTH; for pest or weed control at 35 g/ha: 35 g ai/ha; for pest or weed control at 70 g/ha: 70 g ai/ha; for pest or weed control at 140 g/ha: 140 g ai/ha
Summary of the method: as §1

[8] = system: ECHCG: barnyardgrass (Echinochloa crus-galli); assay: Post-Emergent Test II herbicidal activity; type: in vivo; conditions: post-emergence, 336 h, 14 days, read-out: Visual Growth Reduction (%) 14 Days After Application ECHCG; for pest or weed control at 35 g/ha: 35 g ai/ha; for pest or weed control at 70 g/ha: 70 g ai/ha; for pest or weed control at 140 g/ha: 140 g ai/ha
Summary of the method: as §1

[9] = system: CYPES: yellow nutsedge (Cyperus esculentus); assay: Post-Emergent Test II herbicidal activity; type: in vivo; conditions: post-emergence, 336 h, 14 days, read-out: Visual Growth Reduction (%) 14 Days After Application CYPES; for pest or weed control at 35 g/ha: 35 g ai/ha; for pest or weed control at 70 g/ha: 70 g ai/ha; for pest or weed control at 140 g/ha: 140 g ai/ha
Summary of the method: as §1

[10] = system: SETFA: giant foxtail (Setaria faberi); assay: Post-Emergent Test II herbicidal activity; type: in vivo; conditions: post-emergence, 336 h, 14 days, read-out: Visual Growth Reduction (%) 14 Days After Application SETFA; for pest or weed control at 35 g/ha: 35 g ai/ha; for pest or weed control at 70 g/ha: 70 g ai/ha; for pest or weed control at 140 g/ha: 140 g ai/ha
Summary of the method: as §1

[11] = system: TRZAS: wheat, spring (Triticum aestivum); assay: Post-Emergent Test II herbicidal activity; type: in vivo; conditions: post-emergence, 336 h, 14 days, read-out: Visual Growth Reduction (%) 14 Days After Application TRZAS; for pest or weed control at 35 g/ha: 35 g ai/ha; for pest or weed control at 70 g/ha: 70 g ai/ha; for pest or weed control at 140 g/ha: 140 g ai/ha
Summary of the method: as §1

[12] = system: ZEAMX: maize, corn (Zea mays); assay: Post-Emergent Test II herbicidal activity; type: in vivo; conditions: post-emergence, 336 h, 14 days, read-out: Visual Growth Reduction (%) 14 Days After Application ZEAMX; for pest or weed control at 35 g/ha: 35 g ai/ha; for pest or weed control at 70 g/ha: 70 g ai/ha; for pest or weed control at 140 g/ha: 140 g ai/ha
Summary of the method: as §1

SMILES	melting point [°C]	pest or weed control at 35 g/ha [1] [%]	pest or weed control at 70 g/ha [1] [%]	pest or weed control at 140 g/ha [1] [%]	pest or weed control at 35 g/ha [2] [%]	pest or weed control at 70 g/ha [2] [%]	pest or weed control at 140 g/ha [2] [%]	pest or weed control at 35 g/ha [3] [%]	pest or weed control at 70 g/ha [3] [%]	pest or weed control at 140 g/ha [3] [%]	pest or weed control at 35 g/ha [4] [%]	pest or weed control at 70 g/ha [4] [%]	pest or weed control at 140 g/ha [4] [%]	pest or weed control at 35 g/ha [5] [%]	pest or weed control at 70 g/ha [5] [%]	pest or weed control at 140 g/ha [5] [%]	pest or weed control at 35 g/ha [6] [%]	pest or weed control at 70 g/ha [6] [%]	pest or weed control at 140 g/ha [6] [%]	pest or weed control at 35 g/ha [7] [%]	other results
COC(=O)c1nc(-c2cc3nonc3cc2F)cc(N)c1Cl [Compound 4, Methyl 4-amino-3-chloro-6-(6-fluorobenzo[c][1,2,5]oxadiazol-5-yl)picolinate]	199 to 201	0 to 29	0 to 29	30 to 44	85 to 94	95 to 100	95 to 100	95 to 100	95 to 100	95 to 100	85 to 94	95 to 100	95 to 100	85 to 94	85 to 94	85 to 94	95 to 100	95 to 100	95 to 100	85 to 94	pest or weed control at 70 g/ha [7]: 95 to 100%; pest or weed control at 140 g/ha [7]: 95 to 100%; pest or weed control at 35 g/ha [8]: 85 to 94%; pest or weed control at 70 g/ha [8]: 95 to 100%; pest or weed control at 140 g/ha [8]: 85 to 94%; pest or weed control at 35 g/ha [9]: 95 to 100%; pest or weed control at 70 g/ha [9]: 95 to 100%; pest or weed control at 140 g/ha [9]: 95 to 100%; pest or weed control at 35 g/ha [10]: 60 to 74%; pest or weed control at 70 g/ha [10]: 60 to 74%; pest or weed control at 140 g/ha [10]: 60 to 74%; pest or weed control at 35 g/ha [11]: 60 to 74%; pest or weed control at 70 g/ha [11]: 75 to 84%; pest or weed control at 140 g/ha [11]: 75 to 84%; pest or weed control at 35 g/ha [12]: 85 to 94%; pest or weed control at 70 g/ha [12]: 85 to 94%; pest or weed control at 140 g/ha [12]: 85 to 94%
COC(=O)c1nc(-c2ccc3nonc3c2C)cc(N)c1Cl [Compound 17]	182 to 185	0 to 29	0 to 29	0 to 29	60 to 74	75 to 84	85 to 94	95 to 100	95 to 100	95 to 100	85 to 94	95 to 100	95 to 100	0 to 29	45 to 59	60 to 74	0 to 29	0 to 29	0 to 29	0 to 29	pest or weed control at 70 g/ha [7]: 45 to 59%; pest or weed control at 140 g/ha [7]: 60 to 74%; pest or weed control at 35 g/ha [8]: 0 to 29%; pest or weed control at 70 g/ha [8]: 0 to 29%; pest or weed control at 140 g/ha [8]: 0 to 29%; pest or weed control at 35 g/ha [9]: 60 to 74%; pest or weed control at 70 g/ha [9]: 60 to 74%; pest or weed control at 140 g/ha [9]: 75 to 84%; pest or weed control at 35 g/ha [10]: 0 to 29%; pest or weed control at 70 g/ha [10]: 0 to 29%; pest or weed control at 140 g/ha [10]: 0 to 29%; pest or weed control at 35 g/ha [11]: 0 to 29%; pest or weed control at 70 g/ha [11]: 0 to 29%; pest or weed control at 140 g/ha [11]: 30 to 44%; pest or weed control at 35 g/ha [12]: 0 to 29%; pest or weed control at 70 g/ha [12]: 0 to 29%; pest or weed control at 140 g/ha [12]: 0 to 29%
